Reference: US20180169095A1, “THE USE OF SGC STIMULATORS, SGC ACTIVATORS, ALONE AND COMBINATIONS WITH PDE5 INHIBITORS FOR THE TREATMENT OF DIGITAL ULCERS (DU) CONCOMITANT TO SYSTEMIC SCLEROSIS (SSC)” (Bayer Pharma Aktiengesellschaft, priority 2015, published 2018)
Entries after “also recorded” stand apart in the source; their conditions may differ.

Test system: Tsk-1 mice
Assay: Wound healing in Tsk-1 mice (tight-skin mouse model of SSc), 4 mm punch wounds
Type: in vivo
Conditions: for Healing time relative to healthy WT control mice (in words): TSK mice, no dose given; for Healing time relative to healthy WT control mice (in words) / Wound healing in tsk-1 mice versus placebo (in words): summary statement; for Reduction of wound size / Normalization of wound healing versus placebo-treated WT mice (68%±2%) / Wound healing in tsk-1 mice versus placebo (in words): tsk-1 mice; for Reduction of wound size / Normalization of wound healing versus placebo-treated WT mice (68%±2%): 3 days after punching; for Reduction of wound size: mean±SEM; for Normalization of wound healing versus placebo-treated WT mice (68%±2%): 45 ppm in mice chow; for Wound healing in tsk-1 mice versus placebo (in words): drug in food
Experimental: The tight-skin (Tsk-1) mouse model of SSc was used to evaluate the effects of compound according to formula (27) and (3) (BAY 41-2272 and BAY 63-2521) on wound healing in mice with substantial skin fibrosis. Due to an autosomal dominant mutation namely a tandem duplication of the fibrillin-1 gene, the phenotype of tsk-1 mice is characterized by an increased hypodermal thickness (Beyer et al. 2010). Genotyping of Tsk-1 mice was performed by PCR with the following primers: mutated fibrillin-1/tsk-1 forward primer: 5′-[…]-3′, reverse primer: 5′-[…]-3′.
The effects of either placebo (=vehicle for the compounds=0.5% tylose solution), or the compound according to formula (27) or (3), (BAY 41-2272 or BAY 63-2521) were studied in Tsk-1 mice. Tsk-1 mice were anaesthetized and carefully shaved 3 days before setting the wounds for exact quantification of the wound size. In order to avoid influences on wound healing by daily handling of the animals, the bi-daily gavage treatment was replaced by drug administration in the food. Mice received either normal mice chow (placebo) or mice chow, containing 15 and 45 ppm of compound according to formula (27), (BAY 41-2272) or containing 5 ppm, 15 ppm and 45 ppm of compound according to formula (3), (BAY 63-2521), respectively. […] Treatment groups consist of at least 8 tsk-1 mice per group. Treatment started on the day of shaving to achieve steady state exposure. Three days after shaving, mice were carefully anesthetized and round wounds were punched with 4 mm in diameter. 3 days after punching, mice were euthanized and the wound size was assessed. Statistical analysis of data was done by one-way ANOVA followed by Tuckey's multiple comparison post-hoc analysis

[1] = 15 ppm in mice chow (exposure similar to 1 mg/kg BID)
[2] = 45 ppm in mice chow (exposure similar to 3 mg/kg BID)

Row | SMILES | Healing time relative to healthy WT control mice (in words) | Reduction of wound size (5 ppm in mice chow (exposure similar to 0.3 mg/kg BID)) | Reduction of wound size [1] [%] | Reduction of wound size [2] | Normalization of wound healing versus placebo-treated WT mice (68%±2%) | Wound healing in tsk-1 mice versus placebo (in words)
1 | COC(=O)N(C)c1c(N)nc(-c2nn(Cc3ccccc3F)c3ncccc23)nc1N [(3)] | normalized the healing time to healthy WT control mice | 59%±4% | 65±3 | 70%±2% | normalized wound healing to a similar extent as observed in placebo-treated WT mice | significantly and dose-dependently accelerated wound healing; also recorded: dose-dependently and significantly accelerated wound healing; also recorded: significantly and dose-dependently improved
2 | Nc1nc(-c2nn(Cc3ccccc3F)c3ncccc23)ncc1C1CC1 [(27)] | normalized the healing time to healthy WT control mice | – | 64±2 | 73±2% | normalized wound healing to a similar extent as observed in placebo-treated WT mice | significantly and dose-dependently accelerated wound healing; also recorded: significantly and dose-dependently improved
